# “Also recorded” adds a separate entry of the source.
# What was measured:
# 5-HT2A [1] = biological target: T1, 5-HT2A (Homo sapiens, UniProt P28223); assay: cell-based; parameters: expressed in transfected cells; host or cells: HEK293T, transient; conditions: read-out: 5-HT2A Gq Emax (% 5-HT), BRET, mean ± SEM
# male C57BL/6J mice [2] = assay: Tolerance: DOI-induced HTR after 5 days repeated treatment; type: in vivo, mouse; conditions: 5 days SC: 25N-N1-Nap 20, DOI 10, pimavanserin 1 mg/kg/day
# Procedure: (§1) The mice were allowed to recover from the magnet implantation surgeries for at least 1 week prior to behavioral testing. HTR experiments were conducted in a well-lit room, and the mice were allowed to habituate to the room for at least 1 h prior to testing. Head twitches was assessed in a 12-cm diameter glass cylinder surrounded by a magnetometer coil. Coil voltage was low-pass filtered (2 kHz), amplified, and digitized (20-kHz sampling rate) using a Powerlab/8SP with LabChart v 7.3.2 (ADInstruments, Colorado Springs, CO, USA). […] HTR counts were analyzed using one-way ANOVAs. Dunnett's test was used for post hoc comparisons.
# 5-HT2A [3] = biological target: T1, 5-HT2A; assay: Antagonism of 5-HT-induced Gq signaling (BRET); type: cell-based; parameters: expressed in transfected cells; host or cells: HEK293T, transient
# h5-HT2A = biological target: T2, h5-HT2A (Homo sapiens, UniProt P28223); assay: Antagonism of 5-HT induced Ca2+ flux activation; type: cell-based; conditions: FIG. 1D
# T2 construct: expressed in transfected cells
# T2 sequence (P28223 whole entry): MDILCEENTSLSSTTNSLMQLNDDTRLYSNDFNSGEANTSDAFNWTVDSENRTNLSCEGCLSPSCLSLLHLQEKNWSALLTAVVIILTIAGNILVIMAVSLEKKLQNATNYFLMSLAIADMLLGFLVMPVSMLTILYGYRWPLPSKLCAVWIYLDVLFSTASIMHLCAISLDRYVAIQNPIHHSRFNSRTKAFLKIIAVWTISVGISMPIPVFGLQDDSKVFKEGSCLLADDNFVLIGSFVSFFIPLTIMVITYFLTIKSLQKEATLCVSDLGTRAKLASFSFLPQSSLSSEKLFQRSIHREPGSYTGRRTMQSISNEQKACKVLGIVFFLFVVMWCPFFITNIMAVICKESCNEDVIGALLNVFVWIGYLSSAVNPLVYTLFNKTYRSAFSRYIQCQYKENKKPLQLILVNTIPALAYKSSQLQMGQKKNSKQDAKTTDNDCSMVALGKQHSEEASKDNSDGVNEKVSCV
# Procedure: (A). DOI, a hallucinogen and 5-HT2A agonist, was administered IP 10 min after SC administration of vehicle or test drug. A and then HTR activity was assessed for 30 minutes. *p<0.001, significant difference vs. vehicle (B). Vehicle or the NMDA receptor antagonist PCP (5 mg/kg) was injected IP 10 min after SC administration of vehicle or 25N-NB1-Nap (16), and then the mice were placed in the test chambers 10 min later for a 60-min assessment of locomotor activity. (C). […] Mice were treated with vehicle or M100907 (0.03 mg/kg SC) 10 min prior to vehicle or PCP (5 mg/kg IP): animals were placed in the test chambers 10 min after treatment with PCP. Animals were tested for 60 min. *p<0.01 vs. vehicle: ^#p<0.01 vs. PCP alone.
# Calcium flux was measured using stable-expressing 5-HT2 Flp-In 293 T-Rex Tetracycline inducible system described previously (Investigation of the Structure-Activity Relationships of Psilocy bin Analogues, ACS Pharmacol. Transl. Sci. 2020, Publication Date: Dec. 14, 2020, https://doi.org/10.1021/acsptsci.0c00176). […] After dye load, cells were allowed to equilibrate to room temperature for 15 minutes, and then placed in a FLIPR^TETRA fluorescence imaging plate reader (Molecular Devices). Fluorescence for the FLIPR^TETRA were programmed to read baseline fluorescence for 10 s (1 read/s), and afterward 5 μl of drug per well was added and read for a total of 5-10 min (1 read/s). […]
# 5-HT2A [4] = biological target: T1, 5-HT2A; assay: NanoLuc internalization assay; type: cell-based; conditions: 60 min
# male C57BL/6J mice [5] = assay: Blockade of agonist-induced HTR by pretreatment; type: in vivo, mouse; conditions: pretreatment of mice with test compound
# Procedure: Vehicle or the NMDA receptor antagonist PCP (5 mg/kg) was injected IP 10 min after SC administration of vehicle or 25N-NB1-Nap (16), and then the mice were placed in the test chambers 10 min later for a 60-min assessment of locomotor activity. (C). […] Mice were treated with vehicle or M100907 (0.03 mg/kg SC) 10 min prior to vehicle or PCP (5 mg/kg IP): animals were placed in the test chambers 10 min after treatment with PCP.
# Male C57BL/6J mice (6-8 weeks old) from Jackson Labs (Bar Harbor, ME, USA) were used for the behavioral experiments. The mice were housed on a reversed light-dark cycle (lights on at 1900 h, off at 0700 h) in an AAAC-approved vivarium at the University of California San Diego. Mice were housed up to four per cage in a climate-controlled room and with food and water provided ad libitum except during behavioral testing. Testing was performed between 1000 and 1800 h (during the dark phase of the light-dark cycle). The studies were conducted in accordance with National Institutes Health (NIH) guidelines and were approved by the University of California San Diego Institutional Animal Care and Use Committee.
# as §1
# 5-HT2A [6] = biological target: T1, 5-HT2A; assay: [3H]-ketanserin displacement, 5-HT2A membranes; type: binding; parameters: ES-313-M400UA (membranes); host or cells: CHO-K1
# T1 sequence (P28223 whole entry): as above
Compound,Emax (5-HT2A [1]),Internalization of 5-HT2A receptors (5-HT2A [4]),Blockade of the HTR induced by DOI (male C57BL/6J mice [5]),other results
"COc1cc([N+](=O)[O-])c(OC)cc1CCN [2C-N (1), 2-(2,5-dimethoxy-4-nitrophenyl)ethan-1-amine, reference compound]",87.9 ± 1.4%,–,–,–
"COc1cc([N+](=O)[O-])c(OC)cc1CCNCc1cccc2ccccc12 [25N-N-1-Nap (16), [2-(2,5-dimethoxy-4-nitrophenyl)ethyl][(naphthalen-1-yl)methyl]amine]",23.7 ± 1.4%,potent and strong internalization,blocked the HTR,Ability of DOI (1 mg/kg IP) to induce the HTR after repeated daily treatment (male C57BL/6J mice [2]): reduced significantly; Antagonism of 5-HT-induced 5-HT2A-mediated Gq signaling (5-HT2A [3]): antagonized; Antagonism of 5-HT induced h5-HT2A Ca2+ flux activation (h5-HT2A): Antagonism; Ki (5-HT2A [6]): 4.27 nM
"COc1cc([N+](=O)[O-])c(OC)cc1CCNCc1ccccc1 [25N-NB (2), Benzyl[2-(2,5-dimethoxy-4-nitrophenyl)ethyl]amine]",79.5 ± 1.5%,–,–,–
"COc1cc([N+](=O)[O-])c(OC)cc1CCNCc1cccc(F)c1OC [25N-NB-2-MeO-3-F (19), [2-(2,5-dimethoxy-4-nitrophenyl)ethyl][(3-fluoro-2-methoxyphenyl)methyl]amine]",71.1 ± 1.9%,–,–,–
"COc1cc([N+](=O)[O-])c(OC)cc1CCNCc1cccc(C)c1O [25N-NB-2-OH-3-Me (18), 2-({[2-(2,5-dimethoxy-4-nitrophenyl)ethyl]amino}methyl)-6-methylphenol]",50.8 ± 1.6%,–,blocked the HTR; also recorded: can block the HTR,–
"COc1cc([N+](=O)[O-])c(OC)cc1CCNCc1cccc(C)c1 [25N-NB-3-Me (22), [2-(2,5-dimethoxy-4-nitrophenyl)ethyl][(3-methylphenyl)methyl]amine]",41.7 ± 3.4%,–,–,–
"COc1cc([N+](=O)[O-])c(OC)cc1CCNCc1cccc(O)c1 [25N-NB-3-OH (21), 3-({[2-(2,5-dimethoxy-4-nitrophenyl)ethyl]amino}methyl)phenol]",49.8 ± 4.3%,–,–,–
"COc1cc([N+](=O)[O-])c(OC)cc1CCNCc1ccccc1OC [25N-NBOMe (4), [2-(2,5-dimethoxy-4-nitrophenyl)ethyl] [(2-methoxyphenyl)methyl]amine]",98%,strong internalization,–,Ki (5-HT2A [6]): 1.41 nM
"COc1cc([N+](=O)[O-])c(OC)cc1CCNCc1ccccc1-c1ccccc1 [25N-NBPh (17), ({[1,1′-biphenyl]-2-yl}methyl)[2-(2,5-dimethoxy-4-nitrophenyl)ethyl]amine]",23.2 ± 1.5%,potent and strong internalization,blocked the HTR,Antagonism of 5-HT-induced 5-HT2A-mediated Gq signaling (5-HT2A [3]): antagonized; Antagonism of 5-HT induced h5-HT2A Ca2+ flux activation (h5-HT2A): Antagonism

# — US20240254087A1, “SELECTIVE, PARTIAL, AND ARRESTIN-BIASED 5-HT2A AGONISTS WITH UTILITY IN VARIOUS DISORDERS” (Saint Joseph's University, priority 2021, published 2024)
